Assay results published in paper PMC7555276, “Using Ex Vivo Porcine Jejunum to Identify Membrane Transporter Substrates: A Screening Tool for Early—Stage Drug Development” (Biomedicines, 2020).
In brackets after ≈: the same amount, converted by molar mass. Where two headings read alike, the source gives them in different places.

How the values were obtained:
ex vivo porcine jejunum = assay: Ussing chamber permeation across ex vivo porcine jejunum; assay type: in vitro ADME, pig; conditions: for QPERM (+INH) / QDEP (+INH): presence of the corresponding transporter inhibitor (as E19); for change of Papp,pig in the presence of the corresponding inhibitor / change of QDEP in the presence of the corresponding inhibitor: statistical comparison, α = 0.05, inhibitors as E19; for Papp,pig fold lower than Papp,human: vs reported ex vivo human intestine
From the text: (§1) Fresh jejunum from female, 6 month-old Swiss noble pigs was harvested immediately after slaughter (Abattoir de […], Switzerland and Abattoir de Loëx; Bernex, Switzerland). […] Briefly, the intestine was opened along the mesenteric border and carefully rinsed with ice-cold KBR. […] A six Ussing chamber system was used for the intestinal transport experiments (Physiologic Instruments; San Diego, CA, USA). The Ussing chambers were set up on a heating block connected to a VCC MC6 MultiChannel voltage-current clamp via six input modules, containing integral dummy membranes. A temperature of 38 °C (porcine body temperature) was maintained using a circulating water bath (ED-5, Julabo GmbH, Seelbach, Germany). The Ussing chamber system was set up following the protocol of […] et al. […] In a first step, the acceptor and donor compartments of the Ussing chamber were filled with preheated KBR, and any voltage difference between the electrodes and the electrical resistance due to the buffer solution was eliminated. […] The choice of all substrates and inhibitors was based on the University of California, San Francisco-Food and Drug Administration (UCSF-FDA) TransPortal. The substrates tested, their physicochemical properties and the inhibitors used are described in Table 1. […] The integrity of the intestinal tissue was monitored throughout the experiment by measurement of the transepithelial resistance (TEER). […] At the end of the experiment, samples were taken from the acceptor and the donor compartment. The intestinal tissue was cut into little pieces and extracted for 6 h at room temperature in the mobile phase used for the UHPLC-MS/MS analysis (see Supplementary Information). […] Mass spectrometry was performed in multiple reaction monitoring (MRM) mode. All details of the analytical methods used for each of the molecules tested can be found in the Supplementary Information.

[1] = as above; assay type: in vitro ADME, pig; conditions: female, Swiss noble, pig
From the text: as §1

Solubility in KBR buffer = assay type: physicochemical; conditions: aqueous buffer, Krebs-bicarbonate ringer buffer pH 7.4
rat intestine = conditions: absence of inhibitor; cited from earlier work
[2] = design: method as in earlier work; conditions: cited from earlier work
P-gp = conditions: substrate of P-gp, cited from earlier work
human intestine = tested on: human intestine; design: method as in PMID 23103351, PMID 21416475; conditions: absence of inhibitor; cited from earlier work
BCRP = conditions: cited from earlier work
MRP2 = conditions: cited from earlier work
PEPT1 = tested on: PEPT1; design: method as in PMID 18824524; conditions: inhibitor of PEPT1; cited from earlier work
OCT1 = conditions: substrate of OCT1; cited from earlier work
[3] = tested on: porcine intestine (ileum, jejunum); design: method as in PMID 30901927; conditions: porcine ileum and jejunum; cited from earlier work
OATP2B1 = conditions: cited from earlier work
[4] = drug in acceptor compartment at t = 2 h, absence of inhibitor
[5] = drug in acceptor compartment at t = 2 h
[6] = drug retained in intestinal membrane at t = 2 h, absence of inhibitor
[7] = drug retained in intestinal membrane at t = 2 h
[8] = pH 7.4, absence of inhibitor, substrate 100 µM (digoxin 50 µM), 38 °C, KBR, read-out: Papp,pig (−INH)
[9] = Krebs-bicarbonate ringer (KBR) buffer
[10] = female, Swiss noble, pig, 2 h, pH 7.4

Question: Which “Papp,pig fold lower than Papp,rat” value (ex vivo porcine jejunum; corresponding segment of the intestine) does the source give for `CC1=C(C(=O)O)N2C(=O)[C@@H](NC(=O)[C@H](N)c3ccc(O)cc3)[C@H]2SC1` [Cefadroxil] here?
Answer: ~ 1.8 fold

Question: And the “QPERM (−INH)” value (ex vivo porcine jejunum; [4])?
Answer: 0.50 ± 0.18 (4) %

Question: And the “QPERM (+INH)” value (ex vivo porcine jejunum; [5])?
Answer: 0.31 ± 0.12 (6) %

Question: What about the “QDEP (−INH)” value (ex vivo porcine jejunum; [6]) of the same molecule?
Answer: 1.31 ± 0.40%

Question: And the “QDEP (+INH)” value (ex vivo porcine jejunum; [7])?
Answer: 1.47 ± 0.25%

Question: What about the “change of Papp,pig in the presence of the corresponding inhibitor” value (ex vivo porcine jejunum) of the same molecule?
Answer: statistically significant decrease

Question: And the Papp at 120 min [1, 8]?
Answer: 2.82 ± 0.2 ×10⁻⁶ cm/s

Question: What about the solubility (Solubility in KBR buffer; [9]) of the same molecule?
Answer: 45000 ± 1100 µg/mL (≈ 124 mM)

Question: And the “Papp,rat (−INH)” value (rat intestine)?
Answer: 4.99 ± 0.50 [70] 10^−6 cm/s

Question: And the “log P” value [2]?
Answer: −0.4

Question: With `C[C@H]1O[C@@H](O[C@H]2[C@@H](O)C[C@H](O[C@H]3[C@@H](O)C[C@H](O[C@H]4CC[C@@]5(C)[C@H](CC[C@@H]6[C@@H]5C[C@@H](O)[C@]5(C)[C@@H](C7=CC(=O)OC7)CC[C@]65O)C4)O[C@@H]3C)O[C@@H]2C)C[C@H](O)[C@@H]1O` [Digoxin] as the molecule, how does the “QDEP (−INH)” value (ex vivo porcine jejunum; [10]) read?
Answer: 0.62 ± 0.17%

Question: And the “QPERM (−INH)” value (ex vivo porcine jejunum; [10])?
Answer: 0.21 ± 0.12 (4) %

Question: And the “change of Papp,pig in the presence of the corresponding inhibitor” value (ex vivo porcine jejunum)?
Answer: significantly increased

Question: And the Papp at 120 min ([1]; pH 7.4, Papp,pig (−INH))?
Answer: 0.38 ± 0.23 ×10⁻⁶ cm/s

Question: What about the solubility (Solubility in KBR buffer) of the same molecule?
Answer: 40 ± 10 µg/mL (≈ 0.0512 mM)

Question: And the “Papp,rat (−INH)” value (rat intestine)?
Answer: 6.4 ± 1.9 [14] 10^−6 cm/s

Question: And the Km (P-gp; ref 58)?
Answer: 73 µM

Question: And the Km (P-gp; ref 95)?
Answer: 0.73 µM

Question: What about the “Papp,human (−INH)” value (human intestine) of the same molecule?
Answer: 1.44 ± 0.72 [30] 10^−6 cm/s

Question: For `CC(C)n1c(/C=C/C(O)CC(O)CC(=O)O)c(-c2ccc(F)cc2)c2ccccc21` (stereo not drawn) [Fluvastatin], which Ki (BCRP; inhibitor of BCRP) is on record?
Answer: 5.43 µM

Question: With `COc1ccc2c(c1)c(CC(=O)O)c(C)n2C(=O)c1ccc(Cl)cc1` [Indomethacin] as the molecule, how does the IC50 (MRP2; inhibitor of MRP2) read?
Answer: 60 nM

Question: Which results are given for `CCCCc1nc(Cl)c(CO)n1Cc1ccc(-c2ccccc2-c2nn[nH]n2)cc1` [Losartan]?
Answer: IC50 (PEPT1): 52 µM; Ki (PEPT1): 24 µM

Question: Which “QPERM (−INH)” value (ex vivo porcine jejunum; [4]) does the source give for `CNC(=C[N+](=O)[O-])NCCSCc1ccc(CN(C)C)o1` [Ranitidine] here?
Answer: 0.62 ± 0.17 (12) %

Question: And the “QPERM (+INH)” value (ex vivo porcine jejunum; [5])?
Answer: 0.21 ± 0.03 (5) %

Question: What about the “QDEP (−INH)” value (ex vivo porcine jejunum; [6]) of the same molecule?
Answer: 1.11 ± 0.46%

Question: What about the “QDEP (+INH)” value (ex vivo porcine jejunum; [7]) of the same molecule?
Answer: 0.43 ± 0.12%

Question: And the “change of Papp,pig in the presence of the corresponding inhibitor” value (ex vivo porcine jejunum)?
Answer: significant decrease

Question: What about the “change of QDEP in the presence of the corresponding inhibitor” value (ex vivo porcine jejunum) of the same molecule?
Answer: significant decrease

Question: And the Papp at 120 min [1, 8]?
Answer: 5.07 ± 0.83 ×10⁻⁶ cm/s

Question: What about the Km (OCT1) of the same molecule?
Answer: 70 µM

Question: What about the solubility (Solubility in KBR buffer; [9]) of the same molecule?
Answer: 19600 ± 2780 µg/mL (≈ 62.5 mM)

Question: What about the “Papp,rat (−INH)” value (rat intestine) of the same molecule?
Answer: 4.00 [72] 10^−6 cm/s

Question: And the “effect of P-gp inhibition on Papp,pig” value [3]?
Answer: significant increase of Papp,pig in the ileum, but not in the jejunum

Question: And the Km (P-gp; ref 93)?
Answer: 270 µM

Question: What about the “Papp,human (−INH)” value (human intestine) of the same molecule?
Answer: 5.50 [72] 10^−6 cm/s

Question: Which IC50 (OATP2B1; inhibitor of OATP2B1) does the source give for `CN(CCOc1ccc(CC2SC(=O)NC2=O)cc1)c1ccccn1` (stereo not drawn) [Rosiglitazone] here?
Answer: 5.2 µM

Question: With `CC(C)c1nc(N(C)S(C)(=O)=O)nc(-c2ccc(F)cc2)c1/C=C/[C@@H](O)C[C@@H](O)CC(=O)O` [Rosuvastatin] as the molecule, how does the “QPERM (−INH)” value (ex vivo porcine jejunum; [4]) read?
Answer: 0.17 ± 0.09 (7) %

Question: And the “QPERM (+INH)” value (ex vivo porcine jejunum; [5])?
Answer: 0.29 ± 0.16 (6) %

Question: What about the “QDEP (−INH)” value (ex vivo porcine jejunum; [6]) of the same molecule?
Answer: 3.10 ± 1.46%

Question: And the “QDEP (+INH)” value (ex vivo porcine jejunum; [7])?
Answer: 1.30 ± 0.14%

Question: And the “change of Papp,pig in the presence of the corresponding inhibitor” value (ex vivo porcine jejunum)?
Answer: significantly increased

Question: What about the “change of QDEP in the presence of the corresponding inhibitor” value (ex vivo porcine jejunum) of the same molecule?
Answer: significantly decreased

Question: And the “Papp,pig fold lower than Papp,human” value (ex vivo porcine jejunum)?
Answer: ~ 9 fold

Question: What about the Papp at 120 min [1, 8] of the same molecule?
Answer: 0.91 ± 0.64 ×10⁻⁶ cm/s

Question: What about the solubility (Solubility in KBR buffer; [9]) of the same molecule?
Answer: 420 ± 160 µg/mL (≈ 0.872 mM)

Question: What about the Km (OATP2B1; substrate of OATP2B1) of the same molecule?
Answer: 2400 nM

Question: What about the “log P” value [2] of the same molecule?
Answer: 0.13

Question: What about the “Papp,human (−INH)” value (human intestine) of the same molecule?
Answer: 6.95 ± 1.50 [30] 10^−6 cm/s

Question: What does the source list for `O=C(O)c1cc(/N=N/c2ccc(S(=O)(=O)Nc3ccccn3)cc2)ccc1O` [Sulfasalazine]?
Answer: fold increase of Papp,pig in the presence of the inhibitor (ex vivo porcine jejunum; digoxin+verapamil, sulfasalazine+fluvastatin): 100 fold; QPERM (+INH) (ex vivo porcine jejunum; [5]): 0.12 ± 0.07 (9) %; QDEP (−INH) (ex vivo porcine jejunum; [6]): 3.23 ± 0.56%; QDEP (+INH) (ex vivo porcine jejunum; [7]): 2.47 ± 1.24%; Papp,pig fold lower than Papp,human (ex vivo porcine jejunum): ~ 10 fold; Papp at 120 min [1, 8]: 0.006 ± 0.004 ×10⁻⁶ cm/s; solubility (Solubility in KBR buffer; [9]): 3310 ± 140 µg/mL (≈ 8.31 mM); Papp,rat (−INH) (rat intestine): 2.76 ± 0.19 [73] 10^−6 cm/s; log P [2]: 0.4; Papp,human (−INH) (human intestine): 0.09 ± 0.06 [30] 10^−6 cm/s; Km (BCRP; substrate of BCRP): 700 nM

Question: With `CCCCC(=O)N(Cc1ccc(-c2ccccc2-c2nnn[nH]2)cc1)[C@H](C(=O)O)C(C)C` [Valsartan] as the molecule, how does the “QPERM (−INH)” value (ex vivo porcine jejunum; [4]) read?
Answer: 0.17 ± 0.02 (4) %

Question: What about the “QPERM (+INH)” value (ex vivo porcine jejunum; [5]) of the same molecule?
Answer: 0.24 ± 0.10 (4) %

Question: And the “QDEP (−INH)” value (ex vivo porcine jejunum; [6])?
Answer: 0.44 ± 0.02%

Question: What about the “QDEP (+INH)” value (ex vivo porcine jejunum; [7]) of the same molecule?
Answer: 0.57 ± 0.07%

Question: What about the “change of Papp,pig in the presence of the corresponding inhibitor” value (ex vivo porcine jejunum) of the same molecule?
Answer: No significant difference

Question: And the “change of QDEP in the presence of the corresponding inhibitor” value (ex vivo porcine jejunum)?
Answer: significantly higher

Question: What about the Papp at 120 min [1, 8] of the same molecule?
Answer: 1.2 ± 0.1 ×10⁻⁶ cm/s

Question: And the Km (MRP2; substrate of MRP2)?
Answer: 30.4 µM

Question: Which “effect of P-gp inhibition on Papp,pig” value [3] does the source give for `CN/C(=N/CCSCc1nc[nH]c1C)NC#N` [cimetidine] here?
Answer: significant increase of Papp,pig in the ileum, but not in the jejunum
